Laboratory results taken from patent US20030044413A1, “Methods of limiting apoptosis of cells” (Regents of the University of Minnesota, priority 1998, published 2003).
Read-outs that look alike come from different tables or passages of the source.

What was measured:
rat primary hepatocytes = assay: FACS analysis of ΔΨm and ROS, rat primary hepatocytes; type: cell-based; conditions: for Peroxides Production (%) Inducer + UDCA: 100 μM UDCA pretreatment 60 min; for inhibition at 100 µM: Rattus norvegicus, Hepatocyte, 100 μM UDCA, read-out: % Inhibition of peroxides production; for Inhibition % Superoxide Anion / Inhibition % _Ψm: inhibition by UDCA
Procedure: (§1) A ΔΨm and ROS measurement. ΔΨm and ROS production were measured by FACScan (Becton Dickinson) analysis. Freshly isolated rat hepatocytes were cultured for 3 h as described above and then incubated with William's E medium supplemented with either 100 μM DCA, 100 μM UDCA, equal molar amounts of both, or no bile acid (control), for 6 h. Rat hepatocytes were also cultured with either 1% ethanol, 100 μM UDCA, ethanol+UDCA, or no addition (control) for 4 h. HuH-7 cells, Hep G2 cells, and human osteogenic sarcoma Saos-2 cells were incubated with TGF-β1, anti-Fas antibody or okadaic acid, respectively, for 48 h under the same conditions as outlined above. For combination studies, cells were pretreated with UDCA or hyodeoxycholic acid for 60 min prior to addition of DCA, ethanol, TGF-β1, anti-Fas antibody or okadaic acid. Aliquots of 1.0×10^6 cells were incubated for 15 min at 37° C. with 50 nM 3,3′-dihexyloxacarbocyanine iodide [DiOC6(3)], 2 μM dihydroethidium (HE), or 5 μM 2′,7′-dichlorofluorescin diacetate (H2DCFDA; Molecular Probes, Inc. Eugene, Oreg.) and analyzed by cytofluorometry (Cathcart et al., Anal. Biochem., 134, 111-116 (1983); Zamzami et al., J. Exp. Med., 181, 1661-1672 (1 995); Carter et al., J. Leukocyte Biol., 55, 253-258 (1994)).
(§2) Rat primary hepatocytes were incubated with 100 μM DCA and 1% ETOH for 6 h and 4 h, respectively; HuH-7 cells with 1 nM TGF-β1 for 48 h; Hep G2 cells with 0.5 μg/ml anti-Fas antibody (CH-11) for 48 h, and Saos-2 cells with 50 nM okadaic acid (OA) for 48 h. In each combination group, cells were pretreated with 100 μM UDCA alone for 60 min prior to addition of the inducer. Aliquots of 1.0×10^6 cells were incubated for 15 min at 37° C. with 5 μM 2′,7′-dichlorofluorescin diacetate (H2DCFDA) and analyzed by cytofluorometry.

Saos-2 cells [1] = assay: FACS analysis of ΔΨm and ROS, Saos-2 cells; type: cell-based, human
Procedure: as §1, §2

[2] = tested on: calcein-loaded isolated rat liver mitochondria; assay: MPT fluorimetric assay (calcein release)
Procedure: The fluorimetric assay was performed after loading the mitochondria with 10 μM calcein-acetoxymethyl ester (AM) (Molecular Probes Inc., Eugene, Oreg.) for 30 min at 37° C. in chelex-100 treated resuspension buffer before purification by sucrose-percoll gradient centrifugation (Botla et al., J. Pharmacol. Exp. Ther., 272, 930-938 (1995)). The assays were performed using calcein-loaded isolated mitochondria (1 mg protein/ml) in chelex-100-treated respiration buffer at 37° C. For the coincubation assays, the samples were preincubated for 10 min with 500 μM UDCA prior to addition of 200 μM DCA. The fluorescence of calcein was monitored by excitation and emission wavelengths of 490 nm and 515 nm, respectively, using a Perkin-Elmer luminescence spectrometer model LS-5B (Perkin-Elmer Ltd., Buckinghamshire, England).

Cos-7 cells = assay: Okadaic acid-induced apoptosis, Cos-7 cells; type: cell-based, monkey
Procedure: HuH-7 cells were treated with 1 nM TGF-β1, 100 μM of either hyodeoxycholic acid, taurocholic acid, tauroursodeoxycholic acid (Sigma Chemical Co.) or glycoursodeoxycholic acid (Steraloids Inc., Wilton, N.H.), or a combination of TGF-β1 plus the individual bile acids for 72 h. HeLa and Cos-7 cells were incubated with 50 nM okadaic acid, 100 μM of either tauroursodeoxycholic acid or glycoursodeoxycholic acid, or a combination of okadaic acid plus the individual bile acids for 24 h. In the combination groups, cells were pretreated with the bile acid alone for 60 min prior to incuation with TGF-β1 or okadaic acid. In all studies, the medium was gently removed at the indicated times and scored for nonviable cells. The attached cells were fixed for morphologic evaluation of apoptosis.
(§3) Morphological evaluation of apoptosis. Morphology was performed as described previously (Oberhammer et al., Proc. Natl. Acad. Sci. USA 89, 5408-5412 (1992)). […] Fluorescence was visualized with a Zeiss standard fluorescence microscope (Carl Zeiss, Inc., Thornwood, N.Y.). […] Stained nuclei were scored by blind analysis and categorized according to the condensation and staining characteristics of chromatin. […] Three fields per dish of approximately 500 nuclei were counted; mean values are expressed as the percent of apoptotic nuclei.

HuH-7 cells = assay: Okadaic acid-induced apoptosis, HuH-7 cells; type: cell-based, human; conditions: 48 h
Procedure: Incubation of cells with ethanol, TGF-β1, anti-Fas antibody or okadaic acid. Freshly isolated rat hepatocytes were cultured for 3 h as described above and then incubated with William's E medium supplemented with either 0.5% ethanol, 50 μM UDCA, ethanol plus UDCA, or no addition (control) for 2 h and 4 h. HuH-7 cells were incubated with Dulbecco's medium supplemented with either 1 nM TGF-β1 (R & D Systems, Minneapolis, Minn.), 100 μM UDCA, TGF-β1+UDCA, or no addition (control) for 24 h, 48 h, and 72 h. Hep G2 cells were incubated with Dulbecco's medium supplemented with either 0.5 μg/ml of anti-Fas antibody CH-11 (Upstate Biotechnology, Inc., Lake Placid, N.Y.), 100 μM UDCA, CH-11+UDCA, or no addition for 48 h. Both HuH-7 cells and human osteogenic sarcoma Saos-2 cells were cultured in Dulbecco's medium supplemented with either 50 nM okadaic acid (Boehringer Mannheim Biochemicals, Inc, Indianapolis, Ind.), 100 μM UDCA, okadaic acid+UDCA, or no addition for 48 h. […]
as §3, with “apoptosis.” for “apoptosis. Morphology was performed as described previously (Oberhammer et al., Proc. Natl. Acad. Sci. USA 89, 5408-5412 (1992)).”

Saos-2 cells [3] = assay: Okadaic acid-induced apoptosis, Saos-2 cells; type: cell-based, human
Procedure: Incubation of cells with ethanol, TGF-β1, anti-Fas antibody or okadaic acid. Freshly isolated rat hepatocytes were cultured for 3 h as described above and then incubated with William's E medium supplemented with either 0.5% ethanol, 50 μM UDCA, ethanol plus UDCA, or no addition (control) for 2 h and 4 h. HuH-7 cells were incubated with Dulbecco's medium supplemented with either 1 nM TGF-β1 (R & D Systems, Minneapolis, Minn.), 100 μM UDCA, TGF-β1+UDCA, or no addition (control) for 24 h, 48 h, and 72 h. Hep G2 cells were incubated with Dulbecco's medium supplemented with either 0.5 μg/ml of anti-Fas antibody CH-11 (Upstate Biotechnology, Inc., Lake Placid, N.Y.), 100 μM UDCA, CH-11+UDCA, or no addition for 48 h. Both HuH-7 cells and human osteogenic sarcoma Saos-2 cells were cultured in Dulbecco's medium supplemented with either 50 nM okadaic acid (Boehringer Mannheim Biochemicals, Inc, Indianapolis, Ind.), 100 μM UDCA, okadaic acid+UDCA, or no addition for 48 h. In all the combination groups, cells were pretreated with UDCA alone for 60 min prior to addition of ethanol, TGF-β1, anti-Fas antibody or okadaic acid.
Morphological evaluation of apoptosis. Morphology was performed as described previously (Oberhammer et al., Proc. Natl. Acad. Sci. USA 89, 5408-5412 (1992)). Briefly, after fixation (with 4% formaldehyde in PBS, pH 7.4, for 10 min at room temperature), the cells were incubated with Hoechst dye 33258 (Sigma Chemical Co.) at 5 μg/ml in PBS for 5 min, washed with PBS and mounted with PBS:glycerol (3:1, v/v). Fluorescence was visualized with a Zeiss standard fluorescence microscope (Carl Zeiss, Inc., Thornwood, N.Y.). Photographs were taken with Kodak Ektar-1000 film (Eastman Kodak Co.). Stained nuclei were scored by blind analysis and categorized according to the condensation and staining characteristics of chromatin. Normal nuclei were identified as noncondensed chromatin dispersed over the entire nucleus. […] Three fields per dish of approximately 500 nuclei were counted; mean values are expressed as the percent of apoptotic nuclei.

[4] = inducer OA, Saos-2, inhibition by UDCA

Question: With `C[C@H](CCC(=O)O)[C@H]1CC[C@H]2[C@@H]3CC[C@@H]4C[C@H](O)CC[C@]4(C)[C@H]3C[C@H](O)[C@]12C` [DCA, deoxycholic acid] as the compound, how does the “Peroxides Production (%) Inducer” value (rat primary hepatocytes; 100 μM DCA, 6 h, hepatocytes) read?
Answer: 12.8 ± 0.9%

Question: With `C[C@H](CCC(=O)O)[C@H]1CC[C@H]2[C@@H]3[C@@H](O)C[C@@H]4C[C@H](O)CC[C@]4(C)[C@H]3CC[C@]12C` [UDCA, ursodeoxycholic acid] as the compound, how does the “Peroxides Production (%) Inducer + UDCA” value (Saos-2 cells [1]; 50 nM OA 48 h, 100 μM UDCA pretreatment 60 min) read?
Answer: 5.4 ± 1.5 %

Question: What about the inhibition at 100 µM (Saos-2 cells [1]; Homo sapiens, inducer OA, Saos-2, 100 μM UDCA, read-out: % Inhibition of peroxides production) of the same compound?
Answer: 64.6 ± 7.5%

Question: And the “Inhibition % Superoxide Anion” value (Saos-2 cells [1]; [4])?
Answer: 77.6 ± 18.1%

Question: What about the “Inhibition % _Ψm” value (Saos-2 cells [1]; [4]) of the same compound?
Answer: 21.9 ± 10.7 %

Question: And the “Peroxides Production (%) Inducer + UDCA” value (rat primary hepatocytes; 100 μM DCA 6 h)?
Answer: 4.4 ± 1.5 %

Question: What about the “Peroxides Production (%) Inducer + UDCA” value (rat primary hepatocytes; 1% ETOH 4 h) of the same compound?
Answer: 10.7 ± 3.6 %

Question: And the inhibition at 100 µM (rat primary hepatocytes; inducer DCA, hepatocytes)?
Answer: 65.8 ± 12.4%

Question: And the inhibition at 100 µM (rat primary hepatocytes; inducer ETOH, hepatocytes)?
Answer: 39.5 ± 12.6%

Question: And the “Inhibition % Superoxide Anion” value (rat primary hepatocytes; inducer DCA, hepatocytes)?
Answer: 93.5 ± 17.2%

Question: And the “Inhibition % _Ψm” value (rat primary hepatocytes; inducer DCA, hepatocytes)?
Answer: 60.2 ± 6.1 %

Question: And the “Inhibition % Superoxide Anion” value (rat primary hepatocytes; inducer ETOH, hepatocytes)?
Answer: 86.6 ± 5.6%

Question: What about the “Inhibition % _Ψm” value (rat primary hepatocytes; inducer ETOH, hepatocytes) of the same compound?
Answer: 61.7 ± 33.9%

Question: And the inhibition at 500 µM ([2]; Rattus norvegicus, 200 μM DCA, 500 μM UDCA pretreatment 10 min, read-out: inhibition of DCA-induced calcein release)?
Answer: ~50%

Question: And the percent apoptosis (Cos-7 cells; okadaic acid + UDCA)?
Answer: 7.3±2.4%

Question: What about the “reduction of the apoptotic response” value (HuH-7 cells; 50 nM okadaic acid + 100 μM UDCA) of the same compound?
Answer: > 80%

Question: And the “reduction of the apoptotic response” value (Saos-2 cells [3]; 50 nM okadaic acid + 100 μM UDCA, 48 h)?
Answer: > 80%

Question: And the “Inhibition % Apoptosis” value (Saos-2 cells [3]; [4])?
Answer: 81.8 ± 2.3%

Question: Which “effect on DCA-induced calcein release” value ([2]; 500 μM HDCA pretreatment) does the source give for `C[C@H](CCC(=O)O)[C@H]1CC[C@H]2[C@@H]3C[C@H](O)[C@@H]4C[C@H](O)CC[C@]4(C)[C@H]3CC[C@]12C` [hyodeoxycholic acid] here?
Answer: did not decrease DCA-induced mitochondrial swelling (FIG. 8B) or prevent calcein release

Question: With `C=C1[C@@H](O)[C@@H]2O[C@]3(CC[C@H](/C=C/[C@@H](C)[C@@H]4CC(C)=C[C@@]5(O[C@H](C[C@@](C)(O)C(=O)O)CC[C@H]5O)O4)O3)CC[C@H]2O[C@@H]1[C@@H](O)C[C@H](C)[C@H]1O[C@@]2(CCCCO2)CC[C@H]1C` [okadaic acid] as the compound, how does the “Peroxides Production (%) Inducer” value (Saos-2 cells [1]; 50 nM OA, 48 h, Saos-2) read?
Answer: 15.0 ± 1.1%

Question: What about the percent apoptosis (Cos-7 cells; okadaic acid alone) of the same compound?
Answer: 21.4±2.9%

Question: What about the apoptosis induced (HuH-7 cells; 50 nM okadaic acid) of the same compound?
Answer: > 30%

Question: What about the apoptosis induced (Saos-2 cells [3]; 50 nM okadaic acid, 48 h) of the same compound?
Answer: > 30%
